Measurements reported in US20090143279A1 (priority 2007, published 2009).
Where two headings read alike, the source gives them in different places.

Tests used:
[1] = tested on: mitochondrial membrane potential; type: cell-based, mouse; details: for ΔΨm (composite Z-score): normalized score vs mock-treated (DMSO) wells
reactive oxygen species = type: cell-based, mouse; details: for ROS (composite Z-score): normalized score vs mock-treated (DMSO) wells
OXPHOS gene expression = type: cell-based, mouse; details: for GE-HTS (composite Z-score): normalized score vs mock-treated (DMSO) wells
nuOXPHOS transcripts = type: cell-based, mouse; details: for nucOX (composite Z-score): normalized score vs mock-treated (DMSO) wells
mtOXPHOS transcripts = type: cell-based, mouse; details: for mitoOX (composite Z-score): normalized score vs mock-treated (DMSO) wells
cytochrome c = type: cell-based, mouse; details: for cyt c (composite Z-score): normalized score vs mock-treated (DMSO) wells
C2C12 myotubes = details: for Viability (composite Z-score): normalized score vs mock-treated (DMSO) wells
[2] = tested on: cellular dehydrogenase activity; details: for MTT (composite Z-score): normalized score vs mock-treated (DMSO) wells
[3] = composite Z-score vs mock-treated (DMSO) wells, Conc 20 μM
[4] = 20 μM, composite Z-score vs DMSO
[5] = composite Z-score vs DMSO wells, Conc 20 μM
[6] = normalized composite Z-score vs mock-treated (DMSO) wells, Conc 20 μM
[7] = composite Z-score vs DMSO, Conc 20 μM

SMILES: COc1cccc(-c2cc(=O)c3cc(OC)ccc3o2)c1 [6,3′-dimethoxyflavone]
- ΔΨm [1, 3]: 1.915
- ROS (reactive oxygen species; [3]): −0.882
- GE-HTS (OXPHOS gene expression; [3]): 0.072
- nucOX (nuOXPHOS transcripts; [3]): 0.087
- mitoOX (mtOXPHOS transcripts; [3]): −0.021
- cyt c (cytochrome c; [3]): 0.245
- Viability (C2C12 myotubes; [3]): 0.413
- MTT [2, 3]: −1.534

SMILES: COc1c(O)cc2c(-c3ccccc3)cc(=O)oc2c1OC [kuhlmannin]
- ΔΨm (composite Z-score) ([1]; Conc 20 μM): 0.133
- ROS (composite Z-score) (reactive oxygen species; Conc 20 μM): 0.443
- GE-HTS (composite Z-score) (OXPHOS gene expression; Conc 20 μM): 0.624
- nucOX (composite Z-score) (nuOXPHOS transcripts; Conc 20 μM): 0.646
- mitoOX (composite Z-score) (mtOXPHOS transcripts; Conc 20 μM): 0.408
- cyt c (composite Z-score) (cytochrome c; Conc 20 μM): −0.170
- Viability (composite Z-score) (C2C12 myotubes; Conc 20 μM): 0.333
- MTT (composite Z-score) ([2]; Conc 20 μM): −0.487

SMILES: C[C@]12CC[C@H]3C(=CCc4cc(O)ccc43)[C@@H]1CCC2=O [equilin]
- ΔΨm [1]: −0.408
- ROS (reactive oxygen species): 0.259
- GE-HTS (OXPHOS gene expression): −0.626
- nucOX (nuOXPHOS transcripts): −0.538
- mitoOX (mtOXPHOS transcripts): −0.676
- cyt c (cytochrome c): −0.069
- Viability (C2C12 myotubes): −0.882
- MTT [2]: −2.270

SMILES: CC(=O)OCC[N+](C)(C)C [acetylcholine]
- ΔΨm [1, 4]: −0.520
- ROS (reactive oxygen species; [4]): 0.622
- GE-HTS (OXPHOS gene expression; [4]): 0.358
- nucOX (nuOXPHOS transcripts; [4]): 0.533
- mitoOX (mtOXPHOS transcripts; [4]): 0.014
- cyt c (cytochrome c; [4]): −0.038
- Viability (C2C12 myotubes; [4]): −0.299
- MTT [2, 4]: −0.712

SMILES: CCCCOc1ccc(C(=O)CCN2CCCCC2)cc1 [dyclonine]
- ΔΨm [1, 5]: −1.085
- ROS (reactive oxygen species; [5]): 0.379
- GE-HTS (OXPHOS gene expression; [5]): −0.690
- nucOX (nuOXPHOS transcripts; [5]): −0.377
- mitoOX (mtOXPHOS transcripts; [5]): −1.117
- cyt c (cytochrome c): 0.597
- cyt c (cytochrome c; [5]): 1.243
- Viability (C2C12 myotubes; [5]): −0.640
- MTT [2, 5]: −0.882

SMILES: CC(=O)O[C@H]1C[C@@H](O)C(C)(C)[C@@H]2C[C@@H](OC(C)=O)[C@]3(C)[C@H](CC[C@@]4(C)[C@@H](c5ccoc5)OC(=O)[C@H]5O[C@@]534)[C@@]12C [3-deacetylkhivorin]
- ΔΨm [1, 6]: 0.274
- ROS (reactive oxygen species; [6]): 0.619
- GE-HTS (OXPHOS gene expression; [6]): −0.661
- nucOX (nuOXPHOS transcripts; [6]): −0.823
- mitoOX (mtOXPHOS transcripts; [6]): −0.272
- cyt c (cytochrome c; [6]): −0.600
- Viability (C2C12 myotubes; [6]): 0.398
- MTT [2, 6]: −0.317

SMILES: CC(=O)O[C@@H]1CC2C(C)(C)[C@H](O)C=C[C@]2(C)C2CC[C@]3(C)C(=CC(=O)O[C@H]3c3ccoc3)[C@@]21C (stereo partly drawn) [3-alpha-hydroxydeoxygedinin]
- ΔΨm (composite Z-score) ([1]; Conc 20 μM): 1.760
- ROS (composite Z-score) (reactive oxygen species; Conc 20 μM): 0.531
- GE-HTS (composite Z-score) (OXPHOS gene expression; Conc 20 μM): −1.171
- nucOX (composite Z-score) (nuOXPHOS transcripts; Conc 20 μM): −1.202
- mitoOX (composite Z-score) (mtOXPHOS transcripts; Conc 20 μM): −0.939
- cyt c (composite Z-score) (cytochrome c; Conc 20 μM): −0.321
- Viability (composite Z-score) (C2C12 myotubes; Conc 20 μM): 0.156
- MTT (composite Z-score) ([2]; Conc 20 μM): −0.319

SMILES: O=C(O)c1nc2cc(Cl)c(Cl)cc2nc1O
- ΔΨm (composite Z-score) ([1]; Conc 20 μM): −0.521
- ROS (composite Z-score) (reactive oxygen species; Conc 20 μM): 0.666
- GE-HTS (composite Z-score) (OXPHOS gene expression; Conc 20 μM): −0.320
- nucOX (composite Z-score) (nuOXPHOS transcripts; Conc 20 μM): −0.313
- mitoOX (composite Z-score) (mtOXPHOS transcripts; Conc 20 μM): −0.230
- cyt c (composite Z-score) (cytochrome c; Conc 20 μM): 0.217
- Viability (composite Z-score) (C2C12 myotubes; Conc 20 μM): 0.109
- MTT (composite Z-score) ([2]; Conc 20 μM): −0.131

SMILES: Cc1cc(O)cc(C)c1Cl [chloroxylenol]
- ΔΨm [1, 4]: −0.917
- ROS (reactive oxygen species; [4]): 2.165
- GE-HTS (OXPHOS gene expression; [4]): −0.811
- nucOX (nuOXPHOS transcripts; [4]): −0.857
- mitoOX (mtOXPHOS transcripts; [4]): −0.614
- cyt c (cytochrome c; [4]): 0.499
- Viability (C2C12 myotubes; [4]): −0.639
- MTT [2, 4]: −2.046

SMILES: CN1Cc2c(N)cccc2C(c2ccccc2)C1 (stereo not shown) [nomifensin]
- ΔΨm [1]: −0.329
- ΔΨm [1, 4]: −0.059
- ROS (reactive oxygen species): 3.133
- ROS (reactive oxygen species; [4]): 3.112
- GE-HTS (OXPHOS gene expression): −0.331
- GE-HTS (OXPHOS gene expression; [4]): −0.131
- nucOX (nuOXPHOS transcripts): −0.571
- nucOX (nuOXPHOS transcripts; [4]): −0.169
- mitoOX (mtOXPHOS transcripts): 0.181
- mitoOX (mtOXPHOS transcripts; [4]): −0.026
- cyt c (cytochrome c): −1.298
- cyt c (cytochrome c; [4]): −1.233
- Viability (C2C12 myotubes): 0.121
- Viability (C2C12 myotubes; [4]): 0.525
- MTT [2]: −0.534
- MTT [2, 4]: −0.885

SMILES: C[C@H]1CC[C@]2(NC1)O[C@H]1C[C@H]3[C@@H]4CC[C@H]5C[C@@H](O[C@@H]6O[C@H](CO)[C@H](O[C@@H]7O[C@H](CO)[C@@H](O)[C@H](O[C@@H]8OC[C@@H](O)[C@H](O)[C@H]8O)[C@H]7O[C@@H]7O[C@H](CO)[C@@H](O)[C@H](O)[C@H]7O)[C@H](O)[C@H]6O)CC[C@]5(C)[C@H]4CC[C@]3(C)[C@H]1[C@@H]2C [tomatine]
- ΔΨm [1, 7]: −2.423
- ROS (reactive oxygen species; [7]): −2.084
- GE-HTS (OXPHOS gene expression; [7]): −2.151
- nucOX (nuOXPHOS transcripts; [7]): −2.158
- mitoOX (mtOXPHOS transcripts; [7]): −1.725
- cyt c (cytochrome c; [7]): −3.979
- Viability (C2C12 myotubes; [7]): −4.793
- MTT [2, 7]: −4.122
